From patent US8735414B2 (priority 2009, dated 2014)
pIC50: −log10 of the molar value.

What was measured:
[1] = tested on: bicistronic HCV replicon (replicon RNA, GenBank Accession No. AJ242654); test: HCV Replicon Assay; assay type: cell-based; conditions: Hepatitis C virus, 72 h, read-out: Replicon IC50

Row | Compound | melting point | pIC50 [1]
1 | Cc1cc2c(cc1Cl)c(C#N)c(-c1ccc(S(=O)(=O)N[C@@H](C)C(F)(F)F)cn1)n2-c1ccc(F)cn1 [compound 804, 6-[5-chloro-3-cyano-1-(5-fluoropyridin-2-yl)-6-methyl-1H-indol-2-yl]-N-[(2S)-1,1,1-trifluoropropan-2-yl]pyridine-3-sulfonamide] | 210 to 212 °C | > 6.30
2 | C[C@H](NS(=O)(=O)c1cnc(-c2c(C#N)c3cc(Cl)ccc3n2C2CCC2)nc1)C(F)(F)F [compound 454, 2-(5-chloro-3-cyano-1-cyclobutyl-1H-indol-2-yl)-N-[(2S)-1,1,1-trifluoropropan-2-yl]pyrimidine-5-sulfonamide] | 232 to 234 °C | > 6.30
3 | Cc1ccc2c(C#N)c(-c3ncc(S(=O)(=O)NC(C)C)cn3)n(CC3CC3)c2c1 [compound 168, 2-[3-cyano-1-(cyclopropylmethyl)-6-methyl-1H-indol-2-yl]-N-(propan-2-yl)pyrimidine-5-sulfonamide] | 245 to 247 °C | > 6.30
4 | Cc1cc2c(cc1F)c(C#N)c(-c1ccc(S(=O)(=O)N[C@@H](C)C(F)(F)F)cn1)n2C1CCCCC1 [compound 678, 6-(3-cyano-1-cyclohexyl-5-fluoro-6-methyl-1H-indol-2-yl)-N-[(2S)-1,1,1-trifluoropropan-2-yl]pyridine-3-sulfonamide] | 224 to 229 °C | > 6.30
5 | C[C@H](NS(=O)(=O)c1ccc(-c2c(C#N)c3ccc(C4CC4)cc3n2-c2ccccn2)nc1)C(F)(F)F [compound 502, 6-[3-cyano-6-cyclopropyl-1-(pyridin-2-yl)-1H-indol-2-yl]-N-[(2S)-1,1,1-trifluoropropan-2-yl]pyridine-3-sulfonamide] | 185 to 189 °C | > 6.30
6 | Cc1cc2c(cc1F)c(C#N)c(-c1ccc(S(=O)(=O)NC(C)C)cn1)n2C1CCC1 [compound 655, 6-(3-cyano-1-cyclobutyl-5-fluoro-6-methyl-1H-indol-2-yl)-N-(propan-2-yl)pyridine-3-sulfonamide] | 222 to 226 °C | > 6.30
7 | N#Cc1c(-c2ccc(S(=O)(=O)NC(CF)CF)cn2)n(C2CCCCC2)c2cc(C3CC3)ccc12 [compound 92, 6-(3-cyano-1-cyclohexyl-6-cyclopropyl-1H-indol-2-yl)-N-(1,3-difluoropropan-2-yl)pyridine-3-sulfonamide] | 193 to 198 °C | > 6.30
8 | C[C@H](NS(=O)(=O)c1cnc(-c2c(C#N)c3ccc(CC(F)F)cc3n2CC2CC2)nc1)C1CC1 [compound 619, 2-[3-cyano-1-(cyclopropylmethyl)-6-(2,2-difluoroethyl)-1H-indol-2-yl]-N-[(1S)-1-cyclopropylethyl]pyrimidine-5-sulfonamide] | 144 to 150 °C | > 6.30
9 | C[C@H](NS(=O)(=O)c1ccc(-c2c(C#N)c3ccc(C4CCC4)cc3n2C2CCC2)nc1)C1CC1 [compound 263, 6-(3-cyano-1,6-dicyclobutyl-1H-indol-2-yl)-N-[(1S)-1-cyclopropylethyl]pyridine-3-sulfonamide] | 124 to 126 °C | > 6.30
10 | Cc1ccc2c(C#N)c(-c3ccc(S(=O)(=O)N[C@@H](C)C(F)(F)F)cn3)n(C3CCCCC3)c2c1 [compound 354, 6-(3-cyano-1-cyclohexyl-6-methyl-1H-indol-2-yl)-N-[(2S)-1,1,1-trifluoropropan-2-yl]pyridine-3-sulfonamide] | 207 to 212 °C | > 6.30
11 | Cc1ccc2c(c1)c(C#N)c(-c1ccc(S(=O)(=O)N[C@@H](C)C(F)(F)F)cn1)n2-c1ncccc1F [compound 844, 6-[3-cyano-1-(3-fluoropyridin-2-yl)-5-methyl-1H-indol-2-yl]-N-[(2S)-1,1,1-trifluoropropan-2-yl]pyridine-3-sulfonamide] | 216 to 220 °C | > 6.30
12 | CC(C)NS(=O)(=O)c1cnc(-c2c(C#N)c3cc(F)ccc3n2C2CCCC2)nc1 [compound 603, 2-(3-cyano-1-cyclopentyl-5-fluoro-1H-indol-2-yl)-N-(propan-2-yl)pyrimidine-5-sulfonamide] | 217 to 222 °C | > 6.30
13 | Cc1ccc2c(C#N)c(-c3ncc(S(=O)(=O)NC(CF)CF)cn3)n(-c3ccccc3)c2c1 [compound 260, 2-(3-cyano-6-methyl-1-phenyl-1H-indol-2-yl)-N-(1,3-difluoropropan-2-yl)pyrimidine-5-sulfonamide] | 169 to 171 °C | > 6.30
14 | C[C@H](NS(=O)(=O)c1ccc(-c2c(C#N)c3cc(F)ccc3n2C2C=CCCC2)nc1)C(F)(F)F (stereo partly drawn) [compound 413, 6-[3-cyano-1-(cyclohex-2-en-1-yl)-5-fluoro-1H-indol-2-yl]-N-[(2S)-1,1,1-trifluoropropan-2-yl]pyridine-3-sulfonamide] | 186 to 187 °C | > 6.30
15 | CCc1cc2c(cc1F)c(C#N)c(-c1ccc(S(=O)(=O)N[C@@H](C)C(F)(F)F)cn1)n2-c1cccc(C#N)c1 [compound 1012, 6-[3-cyano-1-(3-cyanophenyl)-6-ethyl-5-fluoro-1H-indol-2-yl]-N-[(2S)-1,1,1-trifluoropropan-2-yl]pyridine-3-sulfonamide] | 244 to 248 °C | 5.70 to 6.30
16 | N#Cc1c(-c2ccc(S(=O)(=O)NC(CF)CF)cn2)n(C2CCC2)c2cc(C3CC3)c(F)cc12 [compound 107, 6-(3-cyano-1-cyclobutyl-6-cyclopropyl-5-fluoro-1H-indol-2-yl)-N-(1,3-difluoropropan-2-yl)pyridine-3-sulfonamide] | 182 to 186 °C | > 6.30
17 | N#Cc1c(-c2ncc(S(=O)(=O)NC(CF)CF)cn2)n(C2CCC2)c2cc(C3CC3)ccc12 [compound 126, 2-(3-cyano-1-cyclobutyl-6-cyclopropyl-1H-indol-2-yl)-N-(1,3-difluoropropan-2-yl)pyrimidine-5-sulfonamide] | 165 to 168 °C | > 6.30
18 | Cc1cc2c(cc1F)c(C#N)c(-c1ccc(S(=O)(=O)NC(CF)CF)cn1)n2C1CCCC1 [compound 407, 6-(3-cyano-1-cyclopentyl-5-fluoro-6-methyl-1H-indol-2-yl)-N-(1,3-difluoropropan-2-yl)pyridine-3-sulfonamide] | 211 to 213 °C | > 6.30
19 | Cc1ccc2c(C#N)c(-c3ccc(S(=O)(=O)NC4(C(F)(F)F)CCC4)cn3)n(C3CCCC3)c2c1 [compound 253, 6-(3-cyano-1-cyclopentyl-6-methyl-1H-indol-2-yl)-N-[1-(trifluoromethyl)cyclobutyl]pyridine-3-sulfonamide] | 214 to 218 °C | > 6.30
20 | CC(C)(C)NS(=O)(=O)c1ccc(-c2c(C#N)c3ccc(OC(F)F)cc3n2-c2ccccc2)nc1 [compound 624, N-tert-butyl-6-[3-cyano-6-(difluoromethoxy)-1-phenyl-1H-indol-2-yl]pyridine-3-sulfonamide] | 216 to 218 °C | > 6.30
21 | CCc1cc2c(cc1F)c(C#N)c(-c1cc(C)c(S(=O)(=O)N[C@@H](C)C(F)(F)F)cn1)n2-c1ccccn1 [compound 852, 6-[3-cyano-6-ethyl-5-fluoro-1-(pyridin-2-yl)-1H-indol-2-yl]-4-methyl-N-[(2S)-1,1,1-trifluoropropan-2-yl]pyridine-3-sulfonamide] | 178 to 183 °C | > 6.30
22 | COc1ccc2c(C#N)c(-c3ccc(NS(=O)(=O)C(C)(C)C)nn3)n(C3CCC3)c2c1 [compound 278, N-[6-(3-cyano-1-cyclobutyl-6-methoxy-1H-indol-2-yl)pyridazin-3-yl]-2-methylpropane-2-sulfonamide] | 218 to 220 °C | 5.70 to 6.30
23 | CCc1cc2c(cc1F)c(C(N)=O)c(-c1ccc(S(=O)(=O)N[C@@H](C)C(F)(F)F)cn1)n2-c1cccc(F)n1 [compound 995, 6-ethyl-5-fluoro-1-(6-fluoropyridin-2-yl)-2-(5-{[(2S)-1,1,1-trifluoropropan-2-yl]sulfamoyl}pyridin-2-yl)-1H-indole-3-carboxamide] | 230 to 233 °C | > 6.30
24 | N#Cc1c(-c2ncc(S(=O)(=O)NC(CF)CF)cn2)n(C2CCCCC2)c2cc(OC(F)(F)F)ccc12 [compound 306, 2-[3-cyano-1-cyclohexyl-6-(trifluoromethoxy)-1H-indol-2-yl]-N-(1,3-difluoropropan-2-yl)pyrimidine-5-sulfonamide] | 168 to 170 °C | 5.70 to 6.30
25 | C[C@H](NS(=O)(=O)c1cnc(-c2c(C#N)c3ccc(F)cc3n2C2CCCCC2)nc1)C1CC1 [compound 499, 2-(3-cyano-1-cyclohexyl-6-fluoro-1H-indol-2-yl)-N-[(1S)-1-cyclopropylethyl]pyrimidine-5-sulfonamide] | 169 to 170 °C | > 6.30
26 | Cc1cc2c(cc1F)c(C(N)=O)c(-c1ccc(S(=O)(=O)N[C@@H](C)C(F)(F)F)cn1)n2-c1ccccn1 [compound 874, 5-fluoro-6-methyl-1-(pyridin-2-yl)-2-(5-{[(2S)-1,1,1-trifluoropropan-2-yl]sulfamoyl}pyridin-2-yl)-1H-indole-3-carboxamide] | 142 to 148 °C | > 6.30
27 | CCc1cc2c(cc1F)c(C#N)c(-c1ccc(S(=O)(=O)N[C@@H](C)C(F)(F)F)cn1)n2-c1cncc(Cl)c1 [compound 983, 6-[1-(5-chloropyridin-3-yl)-3-cyano-6-ethyl-5-fluoro-1H-indol-2-yl]-N-[(2S)-1,1,1-trifluoropropan-2-yl]pyridine-3-sulfonamide] | 107 to 109 °C | > 6.30
28 | N#Cc1c(-c2ncc(S(=O)(=O)NC(CF)CF)cn2)n(C2CCC2)c2ccc(Cl)cc12 [compound 175, 2-(5-chloro-3-cyano-1-cyclobutyl-1H-indol-2-yl)-N-(1,3-difluoropropan-2-yl)pyrimidine-5-sulfonamide] | 210 to 212 °C | > 6.30
29 | C[C@H](NS(=O)(=O)c1ccc(-c2c(C#N)c3cc(F)ccc3n2-c2ccccn2)nc1)C(F)(F)F [compound 386, 6-[3-cyano-5-fluoro-1-(pyridin-2-yl)-1H-indol-2-yl]-N-[(2S)-1,1,1-trifluoropropan-2-yl]pyridine-3-sulfonamide] | 210 to 212 °C | > 6.30
